{"source": "ChEMBL document CHEMBL1201862", "about": "“PubChem BioAssay data set” (2004)", "key": {"[1]": {"target": "Tyrosyl-DNA phosphodiesterase 2 (Homo sapiens, UniProt O95551)", "sequence (O95551 whole entry)": "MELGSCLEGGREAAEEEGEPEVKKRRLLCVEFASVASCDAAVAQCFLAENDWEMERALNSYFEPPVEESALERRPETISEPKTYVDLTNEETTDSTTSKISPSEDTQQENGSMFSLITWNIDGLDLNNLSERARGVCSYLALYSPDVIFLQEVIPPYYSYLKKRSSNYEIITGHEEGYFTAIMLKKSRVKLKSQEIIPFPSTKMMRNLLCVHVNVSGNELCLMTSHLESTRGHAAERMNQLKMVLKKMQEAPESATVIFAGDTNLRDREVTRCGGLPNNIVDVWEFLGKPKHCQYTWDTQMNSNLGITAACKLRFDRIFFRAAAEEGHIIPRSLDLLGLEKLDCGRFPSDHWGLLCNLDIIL", "test": "human TDP2 enzyme inhibitors, dose response, biochemical, epi absorbance, IC50 (AID 743297)"}, "NS3": {"target": "NS3 (Hepatitis C virus, UniProt A3EZJ3)", "sequence (A3EZJ3 whole entry)": "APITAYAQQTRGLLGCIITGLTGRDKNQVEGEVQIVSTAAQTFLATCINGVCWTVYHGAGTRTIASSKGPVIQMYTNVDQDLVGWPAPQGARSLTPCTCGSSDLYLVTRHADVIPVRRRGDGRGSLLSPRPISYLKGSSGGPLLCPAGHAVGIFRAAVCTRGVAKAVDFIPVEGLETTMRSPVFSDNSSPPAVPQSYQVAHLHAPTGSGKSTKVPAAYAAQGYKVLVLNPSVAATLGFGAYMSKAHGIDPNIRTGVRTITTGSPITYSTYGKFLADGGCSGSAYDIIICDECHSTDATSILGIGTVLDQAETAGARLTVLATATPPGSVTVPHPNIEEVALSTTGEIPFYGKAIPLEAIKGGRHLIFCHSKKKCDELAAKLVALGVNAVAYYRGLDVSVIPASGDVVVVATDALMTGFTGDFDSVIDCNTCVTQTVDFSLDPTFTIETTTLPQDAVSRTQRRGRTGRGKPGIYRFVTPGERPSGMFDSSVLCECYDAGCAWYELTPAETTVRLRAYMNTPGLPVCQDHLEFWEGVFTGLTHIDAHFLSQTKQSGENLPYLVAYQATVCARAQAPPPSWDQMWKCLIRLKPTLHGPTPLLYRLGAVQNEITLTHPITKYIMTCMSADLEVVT", "test": "HCV NS3 helicase inhibitor potency, dose response, biochemical, fluorescence polarization, ChemBridge library (AID 743264)"}, "[2]": {"test": "THP-1 cell cytotoxicity, dose response, cytotoxicity control for Vif-APOBEC3G degradation inhibitor project, THP-1 cells (AID 1117359)", "assay_type": "functional", "conditions": "Human immunodeficiency virus 1, THP-1"}, "[3]": {"target": "NAD-dependent protein deacylase sirtuin-5, mitochondrial (Homo sapiens, UniProt Q9NXA8)", "sequence (Q9NXA8 whole entry)": "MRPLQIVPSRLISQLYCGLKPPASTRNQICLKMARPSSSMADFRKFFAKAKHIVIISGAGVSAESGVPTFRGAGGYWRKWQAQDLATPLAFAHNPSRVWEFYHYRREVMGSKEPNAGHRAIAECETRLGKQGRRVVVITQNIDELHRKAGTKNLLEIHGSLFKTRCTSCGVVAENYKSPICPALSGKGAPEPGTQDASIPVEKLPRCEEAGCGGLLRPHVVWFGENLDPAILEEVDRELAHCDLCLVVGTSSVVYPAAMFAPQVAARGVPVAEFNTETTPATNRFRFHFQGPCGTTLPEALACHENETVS", "test": "SIRT5 deacylase inhibitors, dose response, biochemical, fluorescence imaging, cherry-pick, set 6 (AID 720597)"}, "[4]": {"test": "Late stage assay provider results from the probe development effort to identify inhibitors of the Plasmodium falciparum M18 Aspartyl Aminopeptidase (M18AAP): radiolabel-based cell-based dose response assay to identify compounds that inhibit P. falciparum growth in RBCs, Set 2..", "assay_type": "functional"}, "[5]": {"test": "A375 melanoma cell cytotoxicity, dose response, counter-screen for MITF inhibitor project, CellTiter-Glo luminescence, dry powder, set 2 (AID 624489);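 note: actives are compounds lowering A375 viability meaning general cytotoxicity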", "assay_type": "functional, cell-based", "conditions": "A-375"}, "[6]": {"test": "A375 melanoma cell viability loss, dose response, counter-screen for MITF inhibitor project, CellTiter-Glo luminescence, dry powder, set 4 (AID 624364);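 note: A375 melanoma cells are MITF independent so this is a counter screen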", "assay_type": "functional, cell-based", "conditions": "A-375"}, "[7]": {"test": "HepG2 cell cytotoxicity, dose response, cytotoxicity control, ATP luminescence, cherry-pick, set 6 (AID 1053125)", "assay_type": "functional, cell-based"}, "[8]": {"test": "IGROV1 ovarian cancer cell cytotoxicity, dose response, PAX8 inhibitor project, plate reader, dry powder samples (AID 743043)", "assay_type": "functional, cell-based", "conditions": "IGROV-1"}, "[9]": {"test": "cytotoxicity in OVCAR8 ovarian cancer cells, dose response, PAX8 project, cell-based, plate reader, dry powder samples (AID 743197)", "assay_type": "functional", "conditions": "OVCAR-8"}, "[10]": {"test": "non-specific cell cytotoxicity, dose response, cytotoxicity control for PAX8 inhibitor project, plate reader, dry powder samples (AID 743021)", "assay_type": "functional, cell-based"}, "[11]": {"test": "NIH:OVCAR-3 ovarian cancer cell cytotoxicity, dose response, PAX8 inhibitor project, plate reader, dry powder samples (AID 743044)", "assay_type": "functional, cell-based"}, "[12]": {"test": "A2780 ovarian cancer cell cytotoxicity, dose response, cytotoxicity control, plate reader, dry powder samples (AID 743046)", "assay_type": "functional, cell-based"}, "Paired box protein Pax-8": {"target": "Paired box protein Pax-8 (Homo sapiens, UniProt Q06710)", "sequence (Q06710 whole entry)": "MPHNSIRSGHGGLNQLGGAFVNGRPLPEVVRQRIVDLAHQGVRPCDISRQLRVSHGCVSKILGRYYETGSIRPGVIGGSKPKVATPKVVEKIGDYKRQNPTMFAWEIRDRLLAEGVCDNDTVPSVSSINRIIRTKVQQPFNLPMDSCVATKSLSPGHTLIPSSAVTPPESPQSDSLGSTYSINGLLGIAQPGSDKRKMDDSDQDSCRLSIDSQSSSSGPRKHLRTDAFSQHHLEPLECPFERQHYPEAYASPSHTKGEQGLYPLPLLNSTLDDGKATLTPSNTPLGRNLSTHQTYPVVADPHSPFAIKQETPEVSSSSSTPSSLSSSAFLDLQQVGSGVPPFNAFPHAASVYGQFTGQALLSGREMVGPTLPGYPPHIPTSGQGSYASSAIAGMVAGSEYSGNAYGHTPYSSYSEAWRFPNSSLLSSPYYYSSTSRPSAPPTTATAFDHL", "test": "inhibitors of PAX8-driven TPO luciferase reporter, dose response, RMG-I cells, cherry-pick (AID 687027)", "assay_type": "functional, cell-based"}, "[13]": {"test": "MC4R antagonists, dose response, counter-screen for LGR2 antagonist project, cell-based, plate reader, cherry pick (AID 743444);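 note: transfected HEK 293 cells stimulated with alpha-MSH peptide; potency of inhibitors of the alpha-MSH evoked signal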", "assay_type": "functional"}, "[14]": {"test": "HepG2 cell cytotoxicity, dose response, cytotoxicity control, plate reader, cherry-pick, antagonist series (AID 743416)", "assay_type": "functional, cell-based"}, "[15]": {"test": "LGR2 antagonists, dose response, cell-based, HEK293, CRE-luciferase reporter, cherry pick (AID 743342)", "assay_type": "functional"}, "[16]": {"test": "A549 cell cytotoxicity, dose response, cytotoxicity control, plate reader, cherry-pick, antagonist series (AID 743412)", "assay_type": "functional, cell-based"}, "[17]": {"test": "TRPM1 promoter luciferase reporter signal decrease, dose response, MITF inhibitor project, cell-based, SK-MEL-5, dry powder, set 8 (AID 624430)", "assay_type": "functional"}, "[18]": {"test": "MITF Orthogonal Assay: SK-MEL-5 CTG Assay Measured in Cell-Based System Using Plate Reader - 2084-02_Inhibitor_Dose_DryPowder_Activity_Set7.", "assay_type": "functional"}, "[19]": {"test": "MITF: Counter assay: A375 proliferation Measured in Cell-Based System Using Plate Reader - 2084-03_Inhibitor_Dose_DryPowder_Activity_Set8.", "assay_type": "functional", "conditions": "A-375"}}, "note": "Activity calls are given as the source filed them.", "data": [{"smiles": "CCOc1ccc(NC2=CC(=O)C(=O)c3ccccc32)cc1", "values": [{"measurement": "IC50", "setting": "[1]", "result": "> 128 µM (inactive)"}]}, {"smiles": "CC1=C(C#N)c2nc(N)c(C#N)c(C)c2C1=Cc1ccc(-c2cccc(C(=O)O)c2)o1", "values": [{"measurement": "IC50", "setting": "NS3", "result": "143 µM (active)"}]}, {"smiles": "Cc1noc(C)c1S(=O)(=O)Nc1ccc2c(c1)C(=O)N([C@@H](C)CO)C[C@H](C)[C@@H](CN(C)Cc1ccc(C(F)(F)F)cc1)OCCCC[C@H](C)O2", "values": [{"measurement": "CC50", "setting": "[2]", "result": "16.7 µM (active)"}, {"measurement": "AC50", "setting": "[3]", "result": "12.2 µM (active)"}]}, {"smiles": "Oc1ccc(C2CCN(c3ccnc4ccccc34)CC2)cc1O", "values": [{"measurement": "IC50", "setting": "[4]", "result": "1.3 µM (active)"}]}, {"smiles": "CCN1CCN(C2=C(NC(=O)c3ccc(Br)cc3)C(=O)c3ccccc3C2=O)CC1", "values": [{"measurement": "AC50", "setting": "[5]", "result": "6.71 µM (active)"}, {"measurement": "AC50", "setting": "[6]", "result": "15.2 µM (active)"}]}, {"smiles": "Cc1c(C(=O)NCc2ccc3c(c2)OCCO3)sc(=O)n1Cc1ccccc1F", "values": [{"measurement": "AC50", "setting": "[7]", "result": "> 52 µM (inactive)"}]}, {"smiles": "C[C@@H]1CN([C@H](C)CO)C(=O)c2cc(NC(=O)Nc3ccc(C(F)(F)F)cc3)ccc2O[C@@H](C)CCCCO[C@@H]1CN(C)Cc1ccccc1", "values": [{"measurement": "AC50", "setting": "[8]", "result": "40.2 µM (active)"}, {"measurement": "AC50", "setting": "[9]", "result": "21.5 µM (active)"}, {"measurement": "AC50", "setting": "[10]", "result": "68 µM (active)"}, {"measurement": "AC50", "setting": "[11]", "result": "23 µM (active)"}, {"measurement": "AC50", "setting": "[12]", "result": "22.3 µM (active)"}, {"measurement": "AC50", "setting": "Paired box protein Pax-8", "result": "6.4 µM (active)"}]}, {"smiles": "C[C@H](CO)N1C[C@H](C)[C@H](CN(C)C(=O)Nc2ccc(C(F)(F)F)cc2)OCCCC[C@H](C)Oc2ccc(NC(=O)NC3CCCCC3)cc2C1=O", "values": [{"measurement": "AC50", "setting": "[13]", "result": "898 nM (active)"}, {"measurement": "AC50", "setting": "[14]", "result": "> 52 µM (inactive)"}, {"measurement": "AC50", "setting": "[15]", "result": "8.74 µM (active)"}, {"measurement": "AC50", "setting": "[16]", "result": "> 52 µM (inactive)"}]}, {"smiles": "O=C1C(Nc2cccc(Br)c2)=C(N2CCCCC2)C(=O)c2ccccc21", "values": [{"measurement": "AC50", "setting": "[17]", "result": "9.81 µM (active)"}, {"measurement": "AC50", "setting": "[18]", "result": "19.7 µM (active)"}, {"measurement": "AC50", "setting": "[19]", "result": "> 70 µM (inactive)"}]}]}
